For data set [1], the system named is primary medulloblastoma of Patched (PTCH)+/−, p53−/− mice. As to the kind of experiment: Mouse tumor model (tumor inhibition). The class given is in vivo, SCID mice. The settings on record: 100 mg/kg/day, 14 days. As for the experimental part:
Tumor cells from the primary medulloblastoma of Patched (PTCH)+/−, p53−/− mice were injected subcutaneously into the right side of SCID mice. About 7 days after implantation, treatments were started when the tumor volume grew to an average of 200 mm^3. Animals were randomly divided into blank group, compound B administration group and compound B1 administration group. The doses of compound B1 and racemic compound B were 100 mg/kg/day. Tumor volume […] and body weight (g) were recorded every other day. After 14 days of administration, mice were sacrificed and the tumors were removed.
Primary medulloblastoma (5×10^6) from Patched(PTCH)+/−, p53−/− mice can be […] injected into the right sides of SCID mice. Seven days after the injection, treatment with drugs can start when the average size of tumors reaches 200 mm^3. Subjects can be randomly assigned to the control group, the compound B-treatment group and the compound B1-treatment group. Compounds B and B1 can be administered at dosages of about 100 mg/kg/day. The tumor volume and the body weights of the subjects can be measured and recorded every other day. On the 14th day after the drug administration, the subjects can be sacrificed and their tumors can be removed.

In data set [2] the target is T1, CYP2C19 (Homo sapiens, UniProt P33261).
T1 construct: containing HLM (0.2 mg/mL), phosphate buffer (100 mM, pH 7.4); from tissue; host or cells: liver microsomes (HLM)
The data set can be described thus: CYP liver enzyme inhibition experiment, CYP-2C19. The format is in vitro ADME. The settings on record: human liver microsomes, pH 7.4, probe S-mephenytoin, 40 µM, test compound 10 μM, HLM, read-out: CYP-2C19 Inhibitory rate (%). The method, then:
(§1) The five major CYP isozymes and their respective probe substrates were: CYP-1A2 (phenacetin, 30 μM), CYP-2C9 (toluenesulfonylurea, 100 μM), CYP-2C19 40 μM), CYP-2D6 (dextromethorphan, 5 μM) and CYP-3A4 (midazolam, 1 μM). All probes were used close to or below their KMS concentrations. The mixture (200 μL) was incubated in a 37° C. constant temperature water bath, containing HLM (0.2 mg/mL), phosphate buffer (100 mM, pH 7.4), NADPH […], test compound (10 μM) and the respective CYP probe substrate. Before the reaction with NADPH, the mixture was pre-incubated for 10 minutes to undergo inhibitor-enzyme interaction. After a specific period of time (10 minutes for CYP-1A2, 2D6 and 3A4; 30 minutes for CYP-2C9 and 2C19), the reaction was quenched by addition to 100 μL solution of appropriate amount of cold acetonitrile. Reaction system was centrifuged and injected into the LC-MS/MS to quantify the concentration of specific metabolite formed from the substrate and the CYP enzyme. Each test compound was tested at least three times independently. […]
(§2) Before the start of the reaction with NADPH, the above mixture can be pre-incubated for about 10 minutes to allow inhibitor-enzyme interactions. […] The quenched mixture can be centrifuged, and aliquots of the mixture can then be analyzed by LC-MS/MS to quantify the concentrations of specific metabolic products for each CYP isozyme. […]

Data set [3] has as its target T2, CYP2D6 (Homo sapiens, UniProt P10635).
T2 construct: containing HLM (0.2 mg/mL), phosphate buffer (100 mM, pH 7.4); from tissue; host or cells: liver microsomes (HLM)
The data set can be described thus: CYP liver enzyme inhibition experiment, CYP-2D6. The settings on record: human liver microsomes, pH 7.4, probe dextromethorphan, test compound 10 μM, HLM, dextromethorphan 5 μM, read-out: CYP-2D6 Inhibitory rate (%). The class given is in vitro ADME. As for the experimental part:
as §1, §2
Background: Liver microsomes are vesicles of endoplasmic reticulum, rich in cytochrome P450 enzymes.

The target of data set [4] is T3, CYP1A2 (Homo sapiens, UniProt P05177).
T3 construct: containing HLM (0.2 mg/mL), phosphate buffer (100 mM, pH 7.4); from tissue; host or cells: liver microsomes (HLM)
T3 sequence (P05177 1-516): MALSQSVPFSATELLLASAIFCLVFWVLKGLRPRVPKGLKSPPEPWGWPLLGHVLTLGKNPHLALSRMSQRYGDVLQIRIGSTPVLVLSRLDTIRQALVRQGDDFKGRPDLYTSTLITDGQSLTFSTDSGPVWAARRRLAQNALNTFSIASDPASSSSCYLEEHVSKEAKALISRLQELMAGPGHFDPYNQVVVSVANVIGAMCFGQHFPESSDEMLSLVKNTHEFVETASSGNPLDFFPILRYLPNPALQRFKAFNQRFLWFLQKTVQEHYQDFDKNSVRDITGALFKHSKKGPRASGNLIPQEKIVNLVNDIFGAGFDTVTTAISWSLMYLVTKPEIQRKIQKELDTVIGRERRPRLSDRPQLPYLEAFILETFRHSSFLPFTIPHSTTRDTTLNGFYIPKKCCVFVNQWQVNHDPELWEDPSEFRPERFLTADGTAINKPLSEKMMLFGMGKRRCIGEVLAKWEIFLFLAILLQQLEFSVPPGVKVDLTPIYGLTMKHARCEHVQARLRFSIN
The data set can be described thus: CYP liver enzyme inhibition experiment, CYP-1A2. The class given is in vitro ADME. The conditions noted are these: human liver microsomes, pH 7.4, probe phenacetin, test compound 10 μM, HLM, phenacetin 30 μM, read-out: CYP-1A2 Inhibitory rate (%). The method, then:
as §1, §2

The target in data set [5] is T4, CYP3A4 (Homo sapiens, UniProt P08684).
T4 construct: containing HLM (0.2 mg/mL), phosphate buffer (100 mM, pH 7.4); from tissue; host or cells: liver microsomes (HLM)
As to the kind of experiment: CYP liver enzyme inhibition experiment, CYP-3A4. The class given is in vitro ADME. The conditions noted are these: human liver microsomes, pH 7.4, probe midazolam, test compound 10 μM, HLM, midazolam 1 μM, read-out: CYP-3A4 Inhibitory rate (%). The method, then:
as §1, §2

“Also recorded” adds a separate entry of the source.

T1 sequence (P33261 whole entry): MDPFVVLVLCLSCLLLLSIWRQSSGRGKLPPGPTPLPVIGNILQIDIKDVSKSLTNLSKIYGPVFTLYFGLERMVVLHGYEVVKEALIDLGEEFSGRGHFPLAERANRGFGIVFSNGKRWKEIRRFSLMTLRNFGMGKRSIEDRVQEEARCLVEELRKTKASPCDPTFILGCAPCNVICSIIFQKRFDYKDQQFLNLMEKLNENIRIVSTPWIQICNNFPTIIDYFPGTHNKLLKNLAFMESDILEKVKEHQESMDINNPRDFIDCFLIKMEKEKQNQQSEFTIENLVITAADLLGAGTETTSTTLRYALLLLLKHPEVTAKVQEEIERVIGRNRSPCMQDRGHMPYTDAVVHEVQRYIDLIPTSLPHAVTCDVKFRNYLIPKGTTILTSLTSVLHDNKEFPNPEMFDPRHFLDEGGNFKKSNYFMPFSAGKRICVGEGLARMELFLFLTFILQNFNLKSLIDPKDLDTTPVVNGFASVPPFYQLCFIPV
T2 sequence (P10635 whole entry): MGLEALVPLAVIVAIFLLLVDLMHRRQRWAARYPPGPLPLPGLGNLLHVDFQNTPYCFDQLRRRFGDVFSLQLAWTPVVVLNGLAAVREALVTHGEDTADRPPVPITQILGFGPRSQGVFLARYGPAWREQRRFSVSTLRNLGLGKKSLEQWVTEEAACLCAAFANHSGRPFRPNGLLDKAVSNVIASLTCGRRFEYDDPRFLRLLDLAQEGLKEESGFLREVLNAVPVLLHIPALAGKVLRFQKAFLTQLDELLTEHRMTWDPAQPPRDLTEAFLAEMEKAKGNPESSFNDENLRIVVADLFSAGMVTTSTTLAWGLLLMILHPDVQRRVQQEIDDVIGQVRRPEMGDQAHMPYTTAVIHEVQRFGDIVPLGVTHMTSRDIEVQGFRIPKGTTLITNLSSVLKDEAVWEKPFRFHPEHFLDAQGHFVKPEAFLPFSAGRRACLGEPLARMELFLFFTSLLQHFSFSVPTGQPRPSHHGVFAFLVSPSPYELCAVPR
T4 sequence (P08684 whole entry): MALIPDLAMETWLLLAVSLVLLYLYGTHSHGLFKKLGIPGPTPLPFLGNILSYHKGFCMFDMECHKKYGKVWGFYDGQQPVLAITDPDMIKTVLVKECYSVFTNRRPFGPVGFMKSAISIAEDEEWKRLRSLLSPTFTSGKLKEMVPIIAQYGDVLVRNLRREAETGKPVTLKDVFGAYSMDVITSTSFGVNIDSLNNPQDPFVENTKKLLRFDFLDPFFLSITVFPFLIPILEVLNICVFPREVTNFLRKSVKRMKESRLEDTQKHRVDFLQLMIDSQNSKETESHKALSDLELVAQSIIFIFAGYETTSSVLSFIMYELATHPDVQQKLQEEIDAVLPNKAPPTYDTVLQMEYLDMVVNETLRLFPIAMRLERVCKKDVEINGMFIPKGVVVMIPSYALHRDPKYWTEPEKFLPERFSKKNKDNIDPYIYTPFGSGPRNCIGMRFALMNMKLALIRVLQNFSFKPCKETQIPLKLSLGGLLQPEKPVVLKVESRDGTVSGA

With `Cc1cnc(-c2cc(N3CCc4nc(N5CCC(O)CC5)ncc4C3C)ncc2Cl)c(C)c1` (racemic) [B], the results for the “effect on tumor volume (in words)” value in data set [1] and in data set [1] (listed as racemic compound) were “stop the tumor from growing; also recorded: only stopped the growth of tumor; also recorded: may stop the tumors from growing” and “only stop the tumor growth”, respectively. Besides, in data set [2], the inhibition at 30 min, 10 µM stood at 44 ± 3.3%. In addition, the inhibition at 10 min, 10 µM was 30 ± 1.7% in data set [3], 21 ± 1.3% in data set [4] and 21 ± 4% in data set [5].
With `Cc1cnc(-c2cc(N3CCc4nc(N5CCC(O)CC5)ncc4[C@H]3C)ncc2Cl)c(C)c1` [Compound B1, (R)-1-(6-(5′-chloro-3,5-dimethyl-[2,4′-bipyridin]-2′-yl)-5-methyl-5,6,7,8-tetrahydropyrido[4,3-d]pyrimidin-2-yl)piperidin-4-ol], the “effect on tumor volume (in words)” value is “reduce the tumor volume to almost disappear; also recorded: may decrease the tumor volume” in data set [1] and “shrink the tumor volume to almost undetectable” in data set [1] (listed as chiral compound). The inhibition at 30 min, 10 µM in data set [2] is 43 ± 2.6%. Moreover, the inhibition at 10 min, 10 µM turned out to be 24 ± 3.5% in data set [3], 22 ± 15% in data set [4] and 20 ± 5.9% in data set [5].

The values are drawn from patent publication US10919889B2, “Chiral heterocyclic compound with hedgehog pathway antagonist activity, method and use thereof” (SUZHOU KINTOR PHARMACEUTICALS, INC., priority 2016, dated 2021).
